Test results reported in patent US11649246B2, “Salts of 4-amino-N-(l-((3-chloro-2-fluorophenyl)amino)-6-methylisoquinolin-5-yl)thieno[3,2-D]pyrimidine-7-carboxamide, and crystalline forms thereof” (Hanmi Pharm. Co., Ltd., priority 2017, dated 2023).

Assay: Long-term stability at 20° C. to 30° C., 60% relative humidity, protection from light
Format: physicochemical
Conditions: 60% RH
Method: The stability of crystalline Formula (I) bis-hydrochloride Form I was evaluated at 3 months, 6 months, 9 months, 12 months, 18 months and 24 under conditions of 20° C. to 30° C. at 60% relative humidity and protection from light. Stability criteria included the following. At each interval from 3 to 24 months the crystalline Formula (I) bis-hydrochloride Form I appeared as a pale brown to off-white powder. Identification was performed by IR, PXRD and HPLC methods as described elsewhere herein with results reported as pass/fail. Purity was determined by HPLC with known impurities at relative retention times (“RRT”) of 1.1, 1.7 and 2.1. The results are shown in Table 22 where “Init” refers to initial, “Iden” refers to identification, “Imp” refers to impurity, “A.U.I.” refers to any unspecified impurity, “T.U.I.” refers to total unspecified impurity, “T.I.” refers to total impurities, and “N.D.” refers to not detected. The PXRD results at initial, 6 months, 12 months and 24 months are depicted in FIG. 33.

A.U.I. (any unspecified impurity) (3 mo): 0.03%
Identity HPLC (3 mo): pass
Imp 1 (3 mo): 0.02%
Imp RRT 1.7 (3 mo): 0.08%
Purity (3 mo): 99.8%
T.I. (total impurities) (3 mo): 0.15%
T.U.I (total unspecified impurity) (3 mo): 0.05%
A.U.I. (any unspecified impurity) (6 mo): 0.03%
Identity HPLC (6 mo): pass
Identity IR (6 mo): pass
Identity PXRD (6 mo): pass
Imp 1 (6 mo): 0.03%
Imp RRT 1.7 (6 mo): 0.08%
Purity (6 mo): 99.8%
T.I. (total impurities) (6 mo): 0.16%
T.U.I (total unspecified impurity) (6 mo): 0.05%
A.U.I. (any unspecified impurity) (9 mo): 0.03%
Identity HPLC (9 mo): pass
Imp 1 (9 mo): 0.02%
Imp RRT 1.7 (9 mo): 0.08%
Purity (9 mo): 99.8%
T.I. (total impurities) (9 mo): 0.16%
T.U.I (total unspecified impurity) (9 mo): 0.05%
A.U.I. (any unspecified impurity) (12 mo): 0.06%
Identity HPLC (12 mo): pass
Identity IR (12 mo): Pass
Identity PXRD (12 mo): Pass
Imp 1 (12 mo): 0.02%
Imp RRT 1.7 (12 mo): 0.02%
Purity (12 mo): 99.8%
T.I. (total impurities) (12 mo): 0.14%
T.U.I (total unspecified impurity) (12 mo): 0.09%
A.U.I. (any unspecified impurity) (18 mo): 0.06%
Identity HPLC (18 mo): pass
Imp 1 (18 mo): 0.02%
Imp RRT 1.7 (18 mo): 0.02%
Purity (18 mo): 99.9%
T.I. (total impurities) (18 mo): 0.13%
T.U.I (total unspecified impurity) (18 mo): 0.09%
A.U.I. (any unspecified impurity) (24 mo): 0.06%
Identity HPLC (24 mo): pass
Imp 1 (24 mo): 0.02%
Imp RRT 1.7 (24 mo): 0.02%
Purity (24 mo): 99.8%
T.I. (total impurities) (24 mo): 0.15%
T.U.I (total unspecified impurity) (24 mo): 0.11%
A.U.I. (any unspecified impurity) (Init): 0.04%
Identity HPLC (Init): pass
Identity IR (Init): pass
Identity PXRD (Init): pass
Imp 1 (Init): 0.01%
Imp RRT 1.7 (Init): 0.08%
Purity (Init): 99.9%
T.I. (total impurities) (Init): 0.14%
T.U.I (total unspecified impurity) (Init): 0.05%
Compound: Cc1ccc2c(Nc3cccc(Cl)c3F)nccc2c1NC(=O)c1csc2c(N)ncnc12 [Example 3, 4-amino-N-(1-((3-chloro-2-fluorophenyl)amino)-6-methylisoquinolin-5-yl)thieno[3,2-d]pyrimidine-7-carboxamide]
